Assays:
[1] = system: 3×MT-TgUPRT transfected HEK293 cells; experiment: RNA fluorescence imaging via IEDDA (confocal microscopy); assay type: cell-based, Toxoplasma gondii; settings: 1 mM, 24 hours, tetrazene biotin + fluorophore-streptavidin, FIG. 10A
Experimental: RNA fluorescence imaging via IEDDA: The cell culture dishes and glass coverslips were coated with poly-D-lysine (10 μg/ml) for 24 h at 37° C. and washed three times with autoclaved water to remove the excessive amount of poly-D lysine. HEK293 cells were seeded on glass coverslips at 2.5×105 in a 6-well plate. Twenty-four hours post-seeding, cells were transiently transfected with 1 μg WT- or MT-TgUPRT using jetPRIME transfection reagent according to the manufacturers manual (Polyplus Transfection, France). Twenty-four hours post-transfection, cells were treated with DMSO or 1 mM 5VU for 24 hours. After labeling, cells were washed 3× with DPBS, fixed and permeabilized for 30 min at room temperature with 3.7% paraformaldehyde and 0.15% Triton-X100. Cells were then washed three times (7 min/each) on orbital shaker with DPBS, blocked with Streptavidin (2 mg/mL in DPBS) for 30 minutes and followed with BSA (1 mg/ml in DPBS, 0.45% NaCl and 0.025% NaN3) for 30 min at room temperature, washed 2× with DPBS. Blocked cells were incubated with 200-500 μL of 1 mM biotin-tetrazine solution in water for 3 hours at 37° C. […] Slides were imaged via fluorescence confocal microscopy using a 63× oil immersion objective on a […] Carl Zeiss microscope. […]

UPRT(+)-microglia brains = experiment: In vivo labeling of brain RNA in mice transplanted with UPRT-expressing human microglia, biotin dot blot; settings: IP close to 150 mg/kg, 24-48 hours, FIG. 14
Experimental: 5-vinyl-uracil (Alfa Aesar #4437903) was prepared in sterile conditions at 4 times the concentration in 100% DMSO, then diluted to 25% DMSO by adding corn oil to a final concentration of 500 mM. The mixture was heated to 37° C. for […] until homogenous. Mice are weighed before intraperitoneal injection (IP) injection to ensure close to 150 mg/kg are injected per treatment. For an (˜20 g) adult mouse typically 60-70 μl are IP injected per treatment. Mice are monitored for signs of distress. After 24-48 hours of treatment, mice were sacrificed and brains were immediately placed into 2 ml of RNAlater and left in 4° C. for 3-5 days. After removing brains from RNAlater, they were homogenized with RNAse-free 1.4 mm steel beads (Next Advance SSB14B-RNA) for 60 seconds and centrifuged at 4° C. for 5 min, maximum speed to separate the fatty layer. The bottom layer is collected, homogenized with 200 ul chloroform and centrifuged for 20 minutes, at 4° C. The aqueous layer is collected and 500 ul isopropanol added. After centrifugation for 30 minutes 4° C., the RNA pellet is washed in 70% Ethanol twice. After removing ethanol, the RNA pellet is resuspended in nuclease-free water and nanodrop to determine the concentration. From each sample, 15 μg of RNA was subjected in tetrazine-biotin ligation at 37° C., 500 RPM for 3 hours. The biotinylated RNA was purified with RNA Zymo Clean and Concentrator #5 and eluted with nuclease-free water. 2 μg of purified RNA was spotted onto a N+ Hybond membrane and UV-crosslinked at 254 nm (120,000 uJ). Membrane is blocked in blocking buffer (0.12 M NaCl, 0.016 M Na2HPO4, 0.008 M NaH2PO4, 0.17 M SDS) and followed by incubation with high sensitivity streptavidin-HRP (Fisher Scientific, Cat #: P121130) at 1:5000 dilution in blocking buffer for 5 minutes. The membrane was washed twice in a Wash A buffer (1:10 dilution of blocking buffer) and twice in Wash B buffer (Tris-saline buffer). It was then incubated for 1-5 min. in ECL Chemiluminescent Substrate (Fisher Scientific, Cat #: P132106) and imaged on a ChemiDoc MP imaging system (Bio-Rad). […]

C=Cc1c[nH]c(=O)[nH]c1=O [compound 2, 5-Vinylpyrimidine-2,4(1H,3H)-dione]
fluorescent signal of labeled RNA [1]: fluorescent signal was observed only in the presence of both 2 and 3×MT-TgUPRT transfected cells | incorporation into brain RNA, UPRT(+)-microglia transplanted (UPRT(+)-microglia brains): observable signals | incorporation into brain RNA, UPRT(−)-microglia brains (UPRT(+)-microglia brains): significant biotin signal was not observed

Reference: patent US20240117431A1, “STEM-CELL BASED BIOMARKER DISCOVERY” (THE REGENTS OF THE UNIVERSITY OF CALIFORNIA, priority 2020, published 2024)
